Results on four molecules are retold here after ChEMBL document CHEMBL5303573, “Mapping human microbiome drug metabolism by gut bacteria and their genes” (Nature, 2019).

Tested on in one series: not given
The note with it: bacteroides stercoris, 12 h, 2 µM.
As for `O=C(O)c1cc(/N=N/c2ccc(S(=O)(=O)Nc3ccccn3)cc2)ccc1O` [SULFASALAZINE], the “Bacterial Biotransformation” value is reported as “Compound metabolized”.
Consider `COc1ccccc1OCCNCC(O)COc1cccc2[nH]c3ccccc3c12` (stereo not given) [CARVEDILOL], for which the “Bacterial Biotransformation” value was “Compound metabolized”.
On to `CC(C)NCC(O)COc1ccc(CCOCC2CC2)cc1` (stereo not given) [BETAXOLOL], for which the “Bacterial Biotransformation” value is given as “Compound NOT metabolized”.
`CCCC(=O)Nc1ccc(OCC(O)CNC(C)C)c(C(C)=O)c1` (stereo not given) [ACEBUTOLOL]: the “Bacterial Biotransformation” value is given as “Compound NOT metabolized”.

Tested on in the next series: not given
The settings on record: bacteroides fragilis, 12 h, 2 µM.
For `O=C(O)c1cc(/N=N/c2ccc(S(=O)(=O)Nc3ccccn3)cc2)ccc1O` [SULFASALAZINE], the “Bacterial Biotransformation” value is given as “Compound metabolized”.
With `COc1ccccc1OCCNCC(O)COc1cccc2[nH]c3ccccc3c12` (stereo not given) [CARVEDILOL], the “Bacterial Biotransformation” value is reported as “Compound metabolized”.
Regarding `CC(C)NCC(O)COc1ccc(CCOCC2CC2)cc1` (stereo not given) [BETAXOLOL], the “Bacterial Biotransformation” value is listed as “Compound NOT metabolized”.

The target in the next series is T1, Diguanylate cyclase (Collinsella aerofaciens, UniProt A4EB91).
T1 sequence (A4EB91 whole entry): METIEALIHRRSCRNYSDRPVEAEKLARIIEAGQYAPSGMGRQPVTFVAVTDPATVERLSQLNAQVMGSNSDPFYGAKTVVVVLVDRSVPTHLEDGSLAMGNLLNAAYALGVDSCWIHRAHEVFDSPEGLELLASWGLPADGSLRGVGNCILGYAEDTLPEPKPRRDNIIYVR
Nature of the series: (§1) The drug is tested on Collinsella aerofaciens strain: ATCC25986 for biotransformation. The drug concentrations were measured before and after a 12-h incubation by liquid-chromatography-coupled mass spectrometry (LC–MS). The class given is ADME. More on the design: dose 2 uM. The note with it: 2 µM.
For the molecule `O=C(O)c1cc(/N=N/c2ccc(S(=O)(=O)Nc3ccccn3)cc2)ccc1O` [SULFASALAZINE], the “Bacterial Biotransformation” value is recorded as “Compound NOT metabolized”.

Another series concerns the target T2, Pyridine nucleotide-disulfide oxidoreductase (Collinsella aerofaciens, UniProt A4EBM5).
T2 sequence (A4EBM5 whole entry): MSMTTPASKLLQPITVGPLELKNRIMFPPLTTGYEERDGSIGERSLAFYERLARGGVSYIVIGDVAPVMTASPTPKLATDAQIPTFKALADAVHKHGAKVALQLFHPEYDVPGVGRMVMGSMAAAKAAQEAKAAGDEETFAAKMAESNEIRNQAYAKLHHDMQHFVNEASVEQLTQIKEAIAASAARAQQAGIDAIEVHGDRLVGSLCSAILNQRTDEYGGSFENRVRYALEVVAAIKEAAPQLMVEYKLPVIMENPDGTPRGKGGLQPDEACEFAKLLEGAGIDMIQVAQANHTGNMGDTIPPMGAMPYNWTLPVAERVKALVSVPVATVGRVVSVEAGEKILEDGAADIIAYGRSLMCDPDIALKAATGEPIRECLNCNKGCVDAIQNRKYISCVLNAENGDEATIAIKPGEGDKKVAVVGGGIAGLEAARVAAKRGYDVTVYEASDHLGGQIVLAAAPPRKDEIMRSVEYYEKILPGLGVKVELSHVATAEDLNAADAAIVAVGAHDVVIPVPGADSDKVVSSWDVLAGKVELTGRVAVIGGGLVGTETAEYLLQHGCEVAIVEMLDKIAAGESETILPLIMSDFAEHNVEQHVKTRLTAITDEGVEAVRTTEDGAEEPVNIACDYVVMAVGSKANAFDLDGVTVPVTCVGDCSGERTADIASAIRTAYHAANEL
The series is described as §1. It counts as ADME. More on the design: dose 2 uM. The settings on record: 2 µM.
On to `O=C(O)c1cc(/N=N/c2ccc(S(=O)(=O)Nc3ccccn3)cc2)ccc1O` [SULFASALAZINE], for which the “Bacterial Biotransformation” value is “Compound NOT metabolized”.

Another series has as its target T3, Flavodoxin (Collinsella aerofaciens, UniProt A4ED08).
T3 sequence (A4ED08 whole entry): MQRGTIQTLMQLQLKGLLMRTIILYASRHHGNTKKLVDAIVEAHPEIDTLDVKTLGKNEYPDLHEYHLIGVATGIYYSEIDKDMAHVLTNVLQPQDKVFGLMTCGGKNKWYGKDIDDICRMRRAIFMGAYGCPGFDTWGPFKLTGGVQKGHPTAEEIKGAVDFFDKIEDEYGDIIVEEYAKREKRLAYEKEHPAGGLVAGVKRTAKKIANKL
The description is as §1. The class given is ADME. More on the design: dose 2 uM. The settings on record: 2 µM.
For the molecule `O=C(O)c1cc(/N=N/c2ccc(S(=O)(=O)Nc3ccccn3)cc2)ccc1O` [SULFASALAZINE], the “Bacterial Biotransformation” value was “Compound NOT metabolized”.

Tested on in another series: not listed separately
Kind of series: The drug is tested on Bifidobacterium ruminantium strain: fecal isolate for biotransformation. The drug concentrations were measured before and after a 12-h incubation by liquid-chromatography-coupled mass spectrometry (LC–MS). The settings on record: 2 µM.
Take `O=C(O)c1cc(/N=N/c2ccc(S(=O)(=O)Nc3ccccn3)cc2)ccc1O` [SULFASALAZINE]: the “Bacterial Biotransformation” value is “Compound metabolized”.
For the molecule `COc1ccccc1OCCNCC(O)COc1cccc2[nH]c3ccccc3c12` (stereo not given) [CARVEDILOL], the “Bacterial Biotransformation” value is reported as “Compound metabolized”.
As for `CCCC(=O)Nc1ccc(OCC(O)CNC(C)C)c(C(C)=O)c1` (stereo not given) [ACEBUTOLOL], the “Bacterial Biotransformation” value is recorded as “Compound NOT metabolized”.

Tested on in the next series: not listed separately
Kind of series: The drug is tested on Clostridium spiroforme strain: DSM1552 for biotransformation. The drug concentrations were measured before and after a 12-h incubation by liquid-chromatography-coupled mass spectrometry (LC–MS). The note with it: thomasclavelia spiroformis, 2 µM.
Regarding `COc1ccccc1OCCNCC(O)COc1cccc2[nH]c3ccccc3c12` (stereo not given) [CARVEDILOL], the “Bacterial Biotransformation” value is “Compound metabolized”.
`CC(C)NCC(O)COc1ccc(CCOCC2CC2)cc1` (stereo not given) [BETAXOLOL]: the “Bacterial Biotransformation” value is “Compound NOT metabolized”.
In the case of `CCCC(=O)Nc1ccc(OCC(O)CNC(C)C)c(C(C)=O)c1` (stereo not given) [ACEBUTOLOL], the “Bacterial Biotransformation” value is “Compound NOT metabolized”.

A further series concerns the target T4, 3-oxo-5-alpha-steroid 4-dehydrogenase (Bacteroides thetaiotaomicron, UniProt Q8A618).
T4 sequence (Q8A618 whole entry): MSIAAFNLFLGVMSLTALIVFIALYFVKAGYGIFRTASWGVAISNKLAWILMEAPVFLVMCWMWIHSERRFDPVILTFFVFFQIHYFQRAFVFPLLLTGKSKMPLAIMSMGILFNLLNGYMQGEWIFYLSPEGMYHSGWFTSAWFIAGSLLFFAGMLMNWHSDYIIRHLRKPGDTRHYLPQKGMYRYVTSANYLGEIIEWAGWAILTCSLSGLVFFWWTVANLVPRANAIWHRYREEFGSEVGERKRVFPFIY
Kind of series: The drug is tested on Bacteroides thetaiotaomicron strain: VPI-5482 for biotransformation. The drug concentrations were measured before and after a 12-h incubation by liquid-chromatography-coupled mass spectrometry (LC–MS). The class given is ADME. More on the design: dose 2 uM. The settings on record: 2 µM.
In the case of `O=C(O)c1cc(/N=N/c2ccc(S(=O)(=O)Nc3ccccn3)cc2)ccc1O` [SULFASALAZINE], the “Bacterial Biotransformation” value is “Compound NOT metabolized”.

Tested on in the next series: not listed separately
Nature of the series: The drug is tested on Clostridium symbiosum strain: ATCC14940 for biotransformation. The drug concentrations were measured before and after a 12-h incubation by liquid-chromatography-coupled mass spectrometry (LC–MS). The note with it: 2 µM.
Turning to `O=C(O)c1cc(/N=N/c2ccc(S(=O)(=O)Nc3ccccn3)cc2)ccc1O` [SULFASALAZINE], the “Bacterial Biotransformation” value was “Compound metabolized”.
Consider `COc1ccccc1OCCNCC(O)COc1cccc2[nH]c3ccccc3c12` (stereo not given) [CARVEDILOL], for which the “Bacterial Biotransformation” value is given as “Compound NOT metabolized”.
As for `CC(C)NCC(O)COc1ccc(CCOCC2CC2)cc1` (stereo not given) [BETAXOLOL], the “Bacterial Biotransformation” value was “Compound NOT metabolized”.
For `CCCC(=O)Nc1ccc(OCC(O)CNC(C)C)c(C(C)=O)c1` (stereo not given) [ACEBUTOLOL], the “Bacterial Biotransformation” value was “Compound NOT metabolized”.

Tested on in the next series: not listed separately
Nature of the series: The drug is tested on Clostridium sp. strain: fecal isolate for biotransformation. The drug concentrations were measured before and after a 12-h incubation by liquid-chromatography-coupled mass spectrometry (LC–MS). The note with it: 2 µM.
Turning to `O=C(O)c1cc(/N=N/c2ccc(S(=O)(=O)Nc3ccccn3)cc2)ccc1O` [SULFASALAZINE], the “Bacterial Biotransformation” value is reported as “Compound metabolized”.
For the molecule `COc1ccccc1OCCNCC(O)COc1cccc2[nH]c3ccccc3c12` (stereo not given) [CARVEDILOL], the “Bacterial Biotransformation” value is listed as “Compound NOT metabolized”.
Regarding `CC(C)NCC(O)COc1ccc(CCOCC2CC2)cc1` (stereo not given) [BETAXOLOL], the “Bacterial Biotransformation” value is “Compound NOT metabolized”.

Tested on in the next series: not listed separately
Kind of series: The drug is tested on Eggerthella lenta strain: ATCC25559 for biotransformation. The drug concentrations were measured before and after a 12-h incubation by liquid-chromatography-coupled mass spectrometry (LC–MS). The settings on record: 2 µM.
For the molecule `O=C(O)c1cc(/N=N/c2ccc(S(=O)(=O)Nc3ccccn3)cc2)ccc1O` [SULFASALAZINE], the “Bacterial Biotransformation” value is reported as “Compound metabolized”.
Same read-out and setting: then `COc1ccccc1OCCNCC(O)COc1cccc2[nH]c3ccccc3c12` (stereo not given) [CARVEDILOL], with “Compound NOT metabolized”; and `CC(C)NCC(O)COc1ccc(CCOCC2CC2)cc1` (stereo not given) [BETAXOLOL], with “Compound NOT metabolized”.
On the same count and under the same terms, next, `CCCC(=O)Nc1ccc(OCC(O)CNC(C)C)c(C(C)=O)c1` (stereo not given) [ACEBUTOLOL]: “Compound NOT metabolized”.

Tested on in the next series: not given
The note with it: enterocloster bolteae, 12 h, 2 µM.
Take `O=C(O)c1cc(/N=N/c2ccc(S(=O)(=O)Nc3ccccn3)cc2)ccc1O` [SULFASALAZINE]: the “Bacterial Biotransformation” value is listed as “Compound metabolized”.
Regarding `COc1ccccc1OCCNCC(O)COc1cccc2[nH]c3ccccc3c12` (stereo not given) [CARVEDILOL], the “Bacterial Biotransformation” value was “Compound NOT metabolized”.
`CC(C)NCC(O)COc1ccc(CCOCC2CC2)cc1` (stereo not given) [BETAXOLOL]: the “Bacterial Biotransformation” value is listed as “Compound NOT metabolized”.
On to `CCCC(=O)Nc1ccc(OCC(O)CNC(C)C)c(C(C)=O)c1` (stereo not given) [ACEBUTOLOL], for which the “Bacterial Biotransformation” value is “Compound NOT metabolized”.

Tested on in the next series: not listed separately
Kind of series: The drug is tested on Clostridium hathewayi strain: DSM13479 for biotransformation. The drug concentrations were measured before and after a 12-h incubation by liquid-chromatography-coupled mass spectrometry (LC–MS). The settings on record: hungatella hathewayi, 2 µM.
Regarding `COc1ccccc1OCCNCC(O)COc1cccc2[nH]c3ccccc3c12` (stereo not given) [CARVEDILOL], the “Bacterial Biotransformation” value is reported as “Compound metabolized”.
Take `CC(C)NCC(O)COc1ccc(CCOCC2CC2)cc1` (stereo not given) [BETAXOLOL]: the “Bacterial Biotransformation” value was “Compound NOT metabolized”.
As for `CCCC(=O)Nc1ccc(OCC(O)CNC(C)C)c(C(C)=O)c1` (stereo not given) [ACEBUTOLOL], the “Bacterial Biotransformation” value is given as “Compound NOT metabolized”.
